Data published in ChEMBL document CHEMBL1126745, “2,2-Dialkylnaphthalen-1-ones as new potassium channel activators” (J Med Chem, 1993).

Assays:
Rattus norvegicus [1] = assay: Change in systolic blood pressure at intervals of 1 hr after oral administration of 1 mg/kg of compound in spontaneously hypertensive rats (in vivo); Not significant; assay type: functional, Artery
Cavia porcellus [2] = species on record: Cavia porcellus; assay: In vitro inhibition of spontaneous tone of guinea pig tracheal spirals; assay type: functional; conditions: Trachea
Rattus norvegicus [3] = species on record: Rattus norvegicus; assay: Percentage of inhibition of noradrenaline-induced contractions in rat portal vein at 10 uM (in vitro); assay type: functional
Rattus norvegicus [4] = assay: Effective dose (after peroral administration) required to decrease systolic blood pressure by 30 mmHg in spontaneously hypertensive rats (SHR); assay type: functional; conditions: Artery, po
Rattus norvegicus [5] = species on record: Rattus norvegicus; assay: In vitro inhibition of noradrenaline-induced contractions in rat portal vein; assay type: functional
Rattus norvegicus [6] = assay: Change in systolic blood pressure at intervals of 1 hr after oral administration of 1 mg/kg of compound in spontaneously hypertensive rats (in vivo); assay type: functional, Artery
Cavia porcellus [7] = species on record: Cavia porcellus; assay: Inhibition of spontaneous tone of guinea pig tracheal spirals; Insoluble; assay type: functional, Trachea
Rattus norvegicus [8] = assay: Change in systolic blood pressure at intervals of 1 hr after oral administration of 0.1 mg/kg of compound in spontaneously hypertensive rats (in vivo); assay type: functional, Artery
Rattus norvegicus [9] = species on record: Rattus norvegicus; assay: Inhibition of noradrenaline-induced contractions in rat portal vein; Insoluble; assay type: functional

| IC50 (Cavia porcellus [2]) [µM] | IC50 (Rattus norvegicus [5]) [µM] | SMILES | ED30 (Rattus norvegicus [4]) [µg/kg] | further results |
| --- | --- | --- | --- | --- |
| > 10 | – | CC1(C)C(=O)c2ccc(C#N)cc2[C@@H](NC(=O)c2ccc(Cl)c(Cl)c2)[C@@H]1O | – | Delta blood pressure (Rattus norvegicus [1]): <20 mmHg; inhibition at 10 µM (Rattus norvegicus [3]): 67% |
| 0.5 | 0.6 | CC1(C)C=C(n2ccccc2=O)c2cc(C#N)ccc2C1=O | 4 | – |
| 2.1 | 8.8 | CC1(C)C(=O)c2ccc(C#N)cc2[C@@H](Oc2ccc(=O)[nH]n2)[C@@H]1O | 6 | – |
| 3.5 | – | C/C(=N/[C@@H]1c2cc(C#N)ccc2C(=O)C(C)(C)[C@H]1O)NC#N | – | Delta blood pressure (Rattus norvegicus [1]): <20 mmHg; inhibition at 10 µM (Rattus norvegicus [3]): 19% |
| > 10 | – | CC(=O)OC1c2ccc(Br)cc2C(n2ccccc2=O)=CC1(C)C (configuration not stated) | – | Delta blood pressure (Rattus norvegicus [1]): <20 mmHg; inhibition at 10 µM (Rattus norvegicus [3]): 38% |
| 0.6 | 2.8 | Cn1nc(O[C@@H]2c3cc(C#N)ccc3C(=O)C(C)(C)[C@H]2O)ccc1=O | 40 | – |
| 0.2 | 1 | C#Cc1ccc2c(c1)C(n1ccccc1=O)=CC(C)(C)C2=O | 2 | Max fall in blood pressure (Rattus norvegicus [6]): 94 mmHg |
| – | – | CC1(C)C=C(n2ccccc2=O)c2cc(C(F)(F)C(F)(F)F)ccc2C1=O | 2 | IC50 (Cavia porcellus [7]): Insoluble; Max fall in blood pressure (Rattus norvegicus [8]): 81 mmHg; IC50 (Rattus norvegicus [9]): Insoluble |
| 0.5 | 0.3 | CC1(C)C=C(n2ccccc2=O)c2cc(C(F)(F)F)ccc2C1=O | 5 | – |
| 0.2 | 0.5 | CC1(C)C=C(n2ccccc2=O)c2cc(Br)ccc2C1=O | 9 | Max fall in blood pressure (Rattus norvegicus [8]): 42.6 mmHg |
| > 10 | – | CC1(C)C=C(n2ccccc2=O)c2cc(C(N)=O)ccc2C1=O | – | Delta blood pressure (Rattus norvegicus [1]): <20 mmHg; inhibition at 10 µM (Rattus norvegicus [3]): 21% |
| 0.9 | 0.8 | CC1(C)C=C(N2CCCC2=O)c2cc(C#N)ccc2C1=O | 30 | – |
| – | – | CC1(C)Oc2ccc(C#N)cc2C(N2CCCC2=O)C1O (racemic) [CROMAKALIM] | 50 | – |
| 0.3 | 0.1 | CC1(C)Oc2ccc(C#N)cc2[C@@H](N2CCCC2=O)[C@@H]1O [LEVCROMAKALIM] | 10 | Max fall in blood pressure (Rattus norvegicus [8]): 73 mmHg |

| SMILES | IC50 (Cavia porcellus [2]) [µM] | IC50 (Rattus norvegicus [5]) [µM] | ED30 (Rattus norvegicus [4]) [µg/kg] | further results |
| --- | --- | --- | --- | --- |
| CC1(C)C=C(n2ccccc2=O)c2cc(C#C[Si](C)(C)C)ccc2C1=O | 2.4 | 0.5 | 5 | – |
